Columns and labels:
[1] = molecular target: hCB1 (Homo sapiens, UniProt P21554); set-up: expressed in transfected cells; host or cells: CHO cells expressing hCB1 (membranes); conditions: hCB1-CHO cell membranes; extract compared with purified CBDV; cited from earlier work
[2] = tested on: MeCP2 KO mice; assay: body weight gain in MeCP2 KO and WT mice; assay type: in vivo, mouse
Description: CBDV was administered daily at the dose of 2, 20 and 200 mg/kg i.p. starting from PND 28 and the following signs were scored every other day: hindlimb clasping (indication of motor imbalance), tremor, gait (measure of coordination), breathing, mobility and general condition.
The CBDV was dissolved in ethanol, cremophor and saline (1:1:18).
Starting from PND 28, mice received a daily intraperitoneal injection of CBDV (or vehicle) at the dose of 2, 20 and 200 mg/kg. Animals were then scored every other day to evaluate the effect of CBDV treatment on motor symptoms (hindlimb clasping, gait, mobility) as well as neurological signs and general conditions (breathing abnormalities, tremors and general condition) present in MeCP2 knockout (KO) mice.

[3] = tested on: VPA-exposed rats; assay: sociability and preference for social novelty, 3-chamber apparatus, prenatal VPA model; assay type: in vivo, rat
Description: Pregnant Sprague-Dawley rats (Charles River, Calco, Italy), received a single intraperitoneal injection of 500 mg/kg sodium valproate on the 12.5 day after conception, and control females were injected with physiological saline at the same time. Sodium valproate (Sigma Aldrich, Milan, IT) was dissolved in saline at a concentration of 250 mg/ml.
CBDV was dissolved in ethanol, cremophor and saline (1:1:18). Symptomatic treatment with CBDV at doses of 0.2, 2, 20, and 100 mg/kg/day i.p. was performed starting from PND 34 (early adolescence) till 56 (early adulthood), both in male and female offspring of dams injected with VPA 500 mg/kg (or vehicle) on day 12.5 after conception. At PND 56, a series of behavioural tests was performed in order to assess the effect of chronic CBDV on sociability, social novelty, short-term memory, locomotion and stereotyped/repetitive behaviours.
Sociability and preference for social novelty: These behaviours were investigated in a 3-chamber apparatus which allows for the measurement of social approach and social preference. In brief, animals were placed into a novel arena (80 cm×31.5 cm) composed of three communicating chambers separated by Perspex walls with central openings allowing access to all chambers for 5 min.
Following this acclimatisation period, animals were briefly confined to the central chamber while an unfamiliar rat confined in a small wire cage was placed in one of the outer chambers. An identical empty wire cage was placed in the other chamber. The unfamiliar rat was randomly assigned to either the right or left chamber of the arena. The test animal was then allowed to explore the arena/chambers for a further 5 min. Time spent engaging in investigatory behaviour with the rat was evaluated with the aid of Anymaze program (Ugo Basile, Italy) in order to examine social approach.
To investigate the preference for social novelty, a novel unfamiliar rat was then placed in the empty cage and the test animal was then allowed to explore the arena/chambers for a further 5 min. Time spent engaging in investigatory behaviour with the novel unfamiliar rat was evaluated with the aid of Anymaze program (Ugo Basile, Italy) in order to examine preference for social novelty.

[4] = molecular target: T1, CB1 cannabinoid receptors (Mus musculus, UniProt P47746); conditions: MF1 mouse brain membranes; extract compared with purified CBDV; cited from earlier work
T1 construct: in both MF1 mouse brain and hCB1-CHO cell membranes; from tissue; host or cells: MF1 mouse brain membranes
T1 sequence (P47746 whole entry): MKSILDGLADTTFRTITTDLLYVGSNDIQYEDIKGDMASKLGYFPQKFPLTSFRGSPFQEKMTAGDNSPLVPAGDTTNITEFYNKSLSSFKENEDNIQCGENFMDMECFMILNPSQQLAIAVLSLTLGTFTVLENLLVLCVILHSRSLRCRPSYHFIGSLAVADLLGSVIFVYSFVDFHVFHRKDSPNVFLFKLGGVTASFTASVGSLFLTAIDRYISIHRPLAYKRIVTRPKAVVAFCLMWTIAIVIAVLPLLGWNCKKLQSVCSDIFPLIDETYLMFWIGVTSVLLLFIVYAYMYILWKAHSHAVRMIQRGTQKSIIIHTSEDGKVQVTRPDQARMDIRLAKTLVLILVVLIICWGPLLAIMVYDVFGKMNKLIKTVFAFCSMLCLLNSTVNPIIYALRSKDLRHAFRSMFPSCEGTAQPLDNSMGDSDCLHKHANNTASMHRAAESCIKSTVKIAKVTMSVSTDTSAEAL

[5] = tested on: Ube3am-/p+ (AS) mice; assay: rotarod test in Angelman syndrome mice; assay type: in vivo, mouse; conditions: chronic treatment (30 days), 20 mg/kg i.p., vs AS vehicle
Description: (§1) Heterozygous mice with maternal deficiency of Ube3A (Ube3am−/p+) and wild type (Ube3am+/p+) were purchased from The Jackson Laboratory (Jackson code: B6.12957-Ube3a tm1Alb/J) and maintained in a C57BL/6 background.
Drugs were dissolved in 1:1:18 ethanol:cremophor:0.9% saline, for intraperitoneal (i.p.) administration. Drug treatment was performed daily for 35 days. CBDV was administered at 20 mg/kg.
Rotarod: The rotarod test assesses balance and motor coordination of mice. Mice have been measured for the time (in seconds) of equilibrium before falling on a rotary cylinder by a magnet that, activated from the fall of the mouse on the plate, allows to record the time of permanence on the cylinder. […] The animals were analysed by 2 separate tests at 1-h interval in the same day.

[6] = tested on: Ube3am-/p+ (AS) mice; assay: audiogenic seizure susceptibility in Angelman syndrome mice; assay type: in vivo, mouse; conditions: for mice experiencing seizures: baseline 100%
Description: as §1
For the audiogenic seizure tests CBDV was administered at 20, 200 and 400 mg/kg.
Seizure susceptibility: Audiogenic seizures were induced by vigorously scraping scissors across the metal grating of the cage lid which produces a 100 DB high frequency loud noise. This was done for 20 seconds. This test consists of 3 phases. In phase 1 all mice were tested for epilepsy. In phase 2 all mice were injected daily with either vehicle or a drug for 7 or 10 days. In phase 3 mice were tested for epilepsy (one hour after last injection).

Sequence of hCB1 (P21554 whole entry): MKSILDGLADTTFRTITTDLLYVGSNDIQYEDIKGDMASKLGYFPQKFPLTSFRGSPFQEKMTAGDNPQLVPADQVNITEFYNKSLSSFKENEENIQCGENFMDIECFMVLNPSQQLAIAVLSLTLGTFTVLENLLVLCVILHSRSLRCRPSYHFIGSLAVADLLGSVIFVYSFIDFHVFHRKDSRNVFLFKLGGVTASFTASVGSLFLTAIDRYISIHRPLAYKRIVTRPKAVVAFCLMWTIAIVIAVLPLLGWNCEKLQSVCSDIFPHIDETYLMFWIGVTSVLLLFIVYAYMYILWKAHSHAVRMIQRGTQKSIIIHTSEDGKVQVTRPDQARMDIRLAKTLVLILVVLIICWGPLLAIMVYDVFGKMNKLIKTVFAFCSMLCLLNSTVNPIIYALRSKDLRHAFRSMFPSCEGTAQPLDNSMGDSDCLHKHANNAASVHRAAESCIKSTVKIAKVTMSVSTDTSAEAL

C=C(C)[C@@H]1CCC(C)=C[C@H]1c1c(O)cc(CCC)cc1O [CBDV, Cannabidivarin]
affinity for CB1 cannabinoid receptors [1]: neither bound with high enough affinity
body weight (area under the curve) ([2]; MeCP2 KO mice): significantly rescued
reduction in body weight ([2]; MeCP2 KO mice, 2, 20 and 200 mg/kg i.p. daily, PND 28-66): partially prevent
body weight (area under the curve) ([2]; WT controls): without affecting
deficit in social preference ([3]; 20 mg/kg and 100 mg/kg): reversed
restoration of social novelty preference ([3]; 20 mg/kg/day i.p. PND 34-56, p<0.001 in males, p<0.01 in females): statistically significant effect
reduction of preference index in VPA-CBDV animals compared to controls ([3]; VPA alone about 48%): about 13%
impairment in sociability ([3]; all doses (0.2, 2, 20, 100 mg/kg/day i.p.)): significantly reduced
affinity for CB1 cannabinoid receptors [4]: neither bound with high enough affinity
latency to fall [5]: reduced
seizure susceptibility ([6]; AS mice, 20 mg/kg or 200 mg/kg, 7 or 10 days treatment): no effect
number of mice with seizures ([6]; AS mice, 400 mg/kg): statistically significant decrease
mice experiencing seizures ([6]; AS mice, 400 mg/kg, after 7 days treatment): 60%
mice experiencing seizures ([6]; AS mice, 400 mg/kg, after 10 days treatment): 30%
reduction of seizure susceptibility ([6]; Angelman mice, 400 mg/kg, after 10 days treatment): 70%
